Test results reported in patent publication US20260151457A1, “Peptides and Fragments for Treating Diabetes and Associated Metabolic Diseases” (Betavive Ltd., priority 2024, published 2026).

Tests used:
[1] = tested on: db/db mice; experiment: Histopathology and immunohistochemistry of pancreas islet cells in db/db mice treated with IGF-2; type: in vivo
Experimental: FIG. 27 provides results of histopathology and immunohistochemical studies showing the number of pancreas islet cells that test positive for insulin (left panel) and glucagon (right panel) in db/db mice. In this experiment, one group of db/db mice was injected with 12000 μg/kg of IGF-2 on each of 70 consecutive days, a second group of db/db mice was injected with saline, and a third group of db/db mice was a naïve control group. The mice were sacrificed for pathology 70 days after the end of the initial 70 day treatment.
In this experiment, one group of db/db mice (labeled X4) was injected with 12000 μg/kg of IGF-2 on each of 70 consecutive days, a second group of db/db mice (labeled X1) was injected with 3000 μg/kg of IGF-2 on each of 70 consecutive days, and a third group of db/db mice (labeled control) was injected with saline. The mice were sacrificed for pathology 70 days after the end of the initial 70 day treatment. […] The control panels show a positive stain for insulin, which increases in intensity in the 3000 μg/kg/day mice, and increases again in intensity in the 12,000 μg/kg/day mice.

[2] = Blood concentration of IGF-2 after 40 μg intraperitoneal injection (ELISA); type: in vivo, mouse; details: 240 minute time frame
Description: Without being bound by this theory, it is believed that IGF-2 binding proteins may initially inactivate the biological activity of free IGF-2. And over time, the bond between IGF-2 and the binding protein may be released, increasing the bioavailability of IGF-2 and leading to a longer term effective treatment.

[3] = tested on: NOD mice; experiment: Incidence of spontaneous autoimmune type 1 diabetes in NOD mice treated with IGF-2; type: in vivo
Experimental: Non-Obese Diabetic (NOD) mice are a polygenic model for spontaneous autoimmune type 1 diabetes (T1D). NOD mice have an elevated risk for development of autoimmune type 1 diabetes. Thus, NOD mice were used to determine whether treatment IGF-2 reduces spontaneous development of type 1 diabetes.
In this experiment, one group of NOD mice (right panel) was injected with 3000 μg/kg of IGF-2 on each of 76 consecutive days, and a second group of NOD mice (left panel) was injected with saline. […] More specifically, at the end of the 76 days of treatment, only two of the treated mice had developed high glucose levels.
FIG. 30A depicts how many NOD mice have developed autoimmune type I diabetes during an initial 66 days of treatment with IGF-2, and at various intervals post-treatment. In this experiment, one group of NOD mice was injected with 3000 μg/kg of IGF-2 on each of 66 consecutive days, and a second group of NOD mice was injected with saline.
In one exemplary experiment, NOD mice were treated with a 3000 μg/kg daily doses of IGF-2 for 150 days. ⅘ of the treated mice maintained normoglycemia compared to ¼ of the control mice. In another exemplary experiment, NOD mice were treated with a 3000 μg/kg daily dose of IGF-2 for 75 days with follow-up glucose measurements taken for an additional 90 days (during which IGF-2 was not administered). ⅝ of the treated mice maintained normoglycemia compared to 2/11 of the control mice. The average insulin secretion of the treated mice in both of these experiments was five times greater than the control mice.

[4] = tested on: STZ-treated mice; experiment: Pancreas histology and insulin immunohistochemistry in STZ-treated mice; type: in vivo
Experimental: FIG. 21 depicts pancreas histology results on STZ-treated mice. […] The non-control mice were treated once a day for 10 days with a 3000 μg/kg dose of IGF-2. The mice were sacrificed on day 35 and pancreas cells were assessed as being insulin positive or negative.

## insulin-like growth factor 2 [IGF-2]
[1]; 12000 μg/kg on 70 consecutive days, sacrificed 70 days after end of treatment
  Increase in the number of insulin-positive cells: more than 50%
[1]; 3000 and 12000 μg/kg on 70 consecutive days
  Insulin positive cells (immunohistochemical staining): increase in insulin positive cells in a dose-dependent manner
[2]
  Free IGF-2 in the blood (peak): 1 µg
  Peak total concentration of IGF-2 in the blood: about 16 μg
[3]; 3000 μg/kg daily for 75 days, follow-up for an additional 90 days
  Fraction of the treated mice that maintained normoglycemia: ⅝
[3]; 3000 μg/kg daily for 150 days
  Fraction of the treated mice that maintained normoglycemia: ⅘
[3]; 3000 μg/kg on each of 66 consecutive days and post-treatment
  Incidence of spontaneous autoimmune type 1 diabetes: significantly reduced
[3]; 3000 μg/kg on each of 76 consecutive days
  Incidence of spontaneous autoimmune attack: reduced dramatically
[3]; at the end of the 76 days of treatment with 3000 μg/kg
  Number of treated mice that had developed high glucose levels: two
[4]; non-permanently cured mouse
  Level of insulin in pancreas islets compared to a naïve mouse (IHC): lower level of insulin in its pancreas islets
[4]; permanently cured mice, 3000 μg/kg once a day for 10 days, sacrificed on day 35
  Increase in the number of functional beta cells: four
[4]; permanently cured mouse
  Level of insulin in pancreas islets compared to a naïve mouse (IHC): higher level of insulin in its pancreas islets
